Test results published in ChEMBL document CHEMBL1201862, “PubChem BioAssay data set” (2004).
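Method: 48-hour compound exposure of cells in 96-well plates, five concentrations, linear interpolation of endpoints. The concentration for 50% growth inhibition is given as GI50.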 Active and inactive are the calls of the source. No stated cut-off is given here; in the data, active = GI50 up to about 1.1 µM and inactive = higher.

How the values were obtained:
Experiment in all cases: NCI tumour cell line growth inhibition, 48 h
SK-OV-3 = system: SK-OV-3
MDA-MB-231 = system: MDA-MB-231
KM12 = system: KM12
CCRF-CEM = system: CCRF-CEM
BT-549 = system: BT-549
A549 = system: A549
EKVX = system: EKVX
COLO 205 = system: COLO 205
IGROV-1 = system: IGROV-1
RXF 393 = system: RXF 393
NCI-H522 = system: NCI-H522
HOP-92 = system: HOP-92
OVCAR-4 = system: OVCAR-4
RPMI-8226 = system: RPMI-8226
T47D = system: T47D
HCT-15 = system: HCT-15
HCT-116 = system: HCT-116
HL-60 = system: HL-60
A498 = system: A498
PC-3 = system: PC-3
UACC-257 = system: UACC-257
SF-295 = system: SF-295
UO-31 = system: UO-31
SNB-75 = system: SNB-75
M14 = system: M14
SNB-19 = system: SNB-19
SK-MEL-5 = system: SK-MEL-5
SR = system: SR
UACC-62 = system: UACC-62
K562 = system: K562
SW-620 = system: SW-620
SK-MEL-2 = system: SK-MEL-2
LOX IMVI = system: LOX IMVI
SN12C = system: SN12C
MDA-N = system: MDA-N
MCF7 = system: MCF7
NCI/ADR-RES = system: NCI/ADR-RES
CAKI-1 = system: CAKI-1
OVCAR-3 = system: OVCAR-3
NCI-H460 = system: NCI-H460
HOP-62 = system: HOP-62
MOLT-4 = system: MOLT-4
NCI-H226 = system: NCI-H226
HCC 2998 = system: HCC 2998
HT-29 = system: HT-29
SF-268 = system: SF-268
Malme-3M = system: Malme-3M
786-0 = system: 786-0
DU-145 = system: DU-145
SK-MEL-28 = system: SK-MEL-28
NCI-H23 = system: NCI-H23
U-251 = system: U-251
Hs-578T = system: Hs-578T
OVCAR-8 = system: OVCAR-8
OVCAR-5 = system: OVCAR-5
MDA-MB-435 = system: MDA-MB-435
ACHN = system: ACHN
SF-539 = system: SF-539
TK-10 = system: TK-10

SMILES: O=CC(O)C(O)C1OC(=O)c2cc(O)c(O)c(O)c2C2=C(O)C(O)=C3OC(=O)c4c(c(O)c(O)c5c4C3C2C(=O)O5)-c2c(cc(O)c(O)c2O)C(=O)OCC1O (stereo unspecified)
- GI50 (SK-OV-3): 25.9 µM (inactive)
- GI50 (MDA-MB-231): 19.1 µM (inactive)
- GI50 (KM12): 10.4 µM (inactive)
- GI50 (CCRF-CEM): 20.4 µM (inactive)
- GI50 (BT-549): > 100 µM (inactive)
- GI50 (A549): 24.5 µM (inactive)
- GI50 (EKVX): 23.7 µM (inactive)
- GI50 (COLO 205): 23.2 µM (inactive)
- GI50 (IGROV-1): 51.6 µM (inactive)
- GI50 (RXF 393): > 100 µM (inactive)
- GI50 (NCI-H522): 35.6 µM (inactive)
- GI50 (HOP-92): 18 µM (inactive)
- GI50 (OVCAR-4): 16.7 µM (inactive)
- GI50 (RPMI-8226): 24.5 µM (inactive)
- GI50 (T47D): 37.5 µM (inactive)
- GI50 (HCT-15): 20.3 µM
- GI50 (HCT-116): 15.4 µM (inactive)
- GI50 (HL-60): 12.3 µM (inactive)
- GI50 (A498): 44.9 µM (inactive)
- GI50 (PC-3): 43.7 µM (inactive)
- GI50 (UACC-257): 49.5 µM (inactive)
- GI50 (SF-295): 26.4 µM (inactive)
- GI50 (UO-31): 14.7 µM (inactive)
- GI50 (SNB-75): 27.4 µM (inactive)
- GI50 (M14): 22.4 µM (inactive)
- GI50 (SNB-19): 57.8 µM (inactive)
- GI50 (SK-MEL-5): 25.9 µM (inactive)
- GI50 (SR): 24.1 µM (inactive)
- GI50 (UACC-62): 29.2 µM (inactive)
- GI50 (K562): 20.7 µM (inactive)
- GI50 (SW-620): 16.9 µM (inactive)
- GI50 (SK-MEL-2): 33 µM (inactive)
- GI50 (LOX IMVI): 13.6 µM (inactive)
- GI50 (SN12C): 15.2 µM (inactive)
- GI50 (MDA-N): 19 µM (inactive)
- GI50 (MCF7): 17.2 µM (inactive)
- GI50 (NCI/ADR-RES): 88.5 µM (inactive)
- GI50 (CAKI-1): 18.1 µM (inactive)
- GI50 (OVCAR-3): 18.2 µM (inactive)
- GI50 (NCI-H460): 26.2 µM (inactive)
- GI50 (HOP-62): 72.6 µM (inactive)
- GI50 (MOLT-4): 20.7 µM (inactive)
- GI50 (NCI-H226): 21.4 µM (inactive)
- GI50 (HCC 2998): 24.8 µM (inactive)
- GI50 (HT-29): 15.7 µM (inactive)
- GI50 (SF-268): 28.4 µM (inactive)
- GI50 (Malme-3M): 81.8 µM (inactive)
- GI50 (786-0): 16.3 µM (inactive)
- GI50 (DU-145): 17.9 µM (inactive)
- GI50 (SK-MEL-28): 44.3 µM (inactive)
- GI50 (NCI-H23): 78 µM (inactive)
- GI50 (U-251): 19.2 µM (inactive)
- GI50 (Hs-578T): 67.1 µM (inactive)
- GI50 (OVCAR-8): 20.1 µM (inactive)
- GI50 (OVCAR-5): 24 µM (inactive)
- GI50 (MDA-MB-435): 16.5 µM (inactive)
- GI50 (ACHN): 44.2 µM (inactive)

SMILES: CCCC(=O)Nc1cc(C(=O)N2C[C@@H]3C[C@]34C2=CC(=O)c2[nH]cc(C)c24)n(COC)c1
- GI50 (SK-OV-3): 16.3 µM (inactive)
- GI50 (MDA-MB-231): 8.53 µM (inactive)
- GI50 (KM12): 8.85 µM (inactive)
- GI50 (CCRF-CEM): 0.711 µM (active)
- GI50 (BT-549): 8.43 µM (inactive)
- GI50 (SF-539): 7.06 µM (inactive)
- GI50 (A549): 9.75 µM (inactive)
- GI50 (EKVX): 12.6 µM (inactive)
- GI50 (COLO 205): 5.93 µM (inactive)
- GI50 (IGROV-1): 6.52 µM (inactive)
- GI50 (RXF 393): 1.84 µM (inactive)
- GI50 (NCI-H522): 0.977 µM (active)
- GI50 (HOP-92): 1.4 µM (inactive)
- GI50 (OVCAR-4): 8.02 µM (inactive)
- GI50 (RPMI-8226): 12.2 µM (inactive)
- GI50 (T47D): 2.78 µM (inactive)
- GI50 (HCT-15): 15.9 µM
- GI50 (HCT-116): 7.87 µM (inactive)
- GI50 (HL-60): 1.79 µM (inactive)
- GI50 (A498): 10 µM (inactive)
- GI50 (PC-3): 7.33 µM (inactive)
- GI50 (UACC-257): 9.79 µM (inactive)
- GI50 (SF-295): 19.9 µM (inactive)
- GI50 (UO-31): 8.97 µM (inactive)
- GI50 (SNB-75): 7.36 µM (inactive)
- GI50 (M14): 12.4 µM (inactive)
- GI50 (SNB-19): 12.4 µM (inactive)
- GI50 (SK-MEL-5): 1.54 µM (inactive)
- GI50 (SR): 0.566 µM (active)
- GI50 (UACC-62): 5.86 µM (inactive)
- GI50 (K562): 2.33 µM (inactive)
- GI50 (SW-620): 1.62 µM (inactive)
- GI50 (SK-MEL-2): 2.38 µM (inactive)
- GI50 (LOX IMVI): 2.62 µM (inactive)
- GI50 (SN12C): 10.6 µM (inactive)
- GI50 (MDA-N): 8.65 µM (inactive)
- GI50 (MCF7): 1.36 µM (inactive)
- GI50 (NCI/ADR-RES): 13.9 µM (inactive)
- GI50 (CAKI-1): 2.21 µM (inactive)
- GI50 (OVCAR-3): 6.81 µM (inactive)
- GI50 (NCI-H460): 6.64 µM (inactive)
- GI50 (HOP-62): 14 µM (inactive)
- GI50 (MOLT-4): 0.807 µM (active)
- GI50 (NCI-H226): 11.2 µM (inactive)
- GI50 (TK-10): 10.7 µM (inactive)
- GI50 (HCC 2998): 3.28 µM (inactive)
- GI50 (HT-29): 8.55 µM (inactive)
- GI50 (SF-268): 1.48 µM (inactive)
- GI50 (Malme-3M): 2.59 µM (inactive)
- GI50 (786-0): 5.47 µM (inactive)
- GI50 (DU-145): 2.54 µM (inactive)
- GI50 (SK-MEL-28): 7.48 µM (inactive)
- GI50 (NCI-H23): 1.56 µM (inactive)
- GI50 (U-251): 3.17 µM (inactive)
- GI50 (Hs-578T): 14.5 µM (inactive)
- GI50 (OVCAR-8): 1.94 µM (inactive)
- GI50 (OVCAR-5): 34.4 µM (inactive)
- GI50 (MDA-MB-435): 9.06 µM (inactive)
- GI50 (ACHN): 5.93 µM (inactive)
